Assay [1] deals with Mouse Atopic Dermatitis Model. Put plainly: Mouse atopic dermatitis model (epicutaneous sensitization with Dermatophagoides pteronyssinus allergen). Type of assay: in vivo, Balb/c mice. Conditions: for Insensible water loss (IWL) decrease / Thickness of the epidermis (epidermal acanthosis) change / Inflammatory score reduction: day 51; for Insensible water loss (IWL) decrease: FIG. 1; for Thickness of the epidermis (epidermal acanthosis) change: FIG. 2; for Inflammatory score reduction: FIG. 3. The procedure:
Example 1: Protocol for Testing an NLRP3 Antagonist (N-((1,2,3,5,6,7-hexahydro-s-indacen-4-yl)carbamoyl)-4-(2-hydroxypropan-2-yl)furan-2-sulfonamide, Compound 3, Also Known as MCC950) on a Mouse Atopic Dermatitis Model
Female Balb/c mice were treated with the allergen Dermatophagoides pteronyssinus (DERP) in 3 cycles of epicutaneous sensitization (per patch) on the abdominal skin with 2 patches applied twice a week, followed by 2 weeks of rest, for 7 weeks. Topical treatments with an NLRP3 antagonist (compound 3, 2% in an acetone carrier) or a corticosteroid (0.1% betamethasone valerate, used as a control) were carried out 3 times over the course of the third and final week of sensitization (on days 44, 47 and 50).
An inflammatory reaction was induced by epicutaneous sensitization with patches impregnated with 100 μg of allergen in a sterile saline solution (Dermatophagoides pteronyssinus or DERP) or with a carrier applied to the abdominal skin 24 hours after shaving and left for three periods of 1 week (with a change of patch in the middle of the week), with a gap of 2 weeks between applications.
For the systemic route, the NLRP3 antagonist was administered intravenously, 200 μl, 2.5 mg/ml once a day, for the final series of epicutaneous sensitization with the allergen (D44 to D50).
For the topical administration, the test antagonist (compound 3) was formulated at 2% in an acetone carrier, applied to the sensitized skin 2 hours before the DERP patches were put in place. The topical treatments with an NLRP3 antagonist or a corticosteroid (used as a control) were carried out 3 times over the course of the third and final week of sensitization (on days 44, 47 and 50). At the time the final patch was removed (day 51), the skin and blood samples were collected.
The IWL is measured using a Tewameter on an animal the day before day 51. The Tewameter® probe measures the gradient of density of the evaporation of water from the skin indirectly by means of two sensors (temperature and relative humidity) inside a hollow cylinder. A microprocessor analyzes the values and expresses the evaporation rate in g/h/m^2.
The thickness of the epidermis is measured by histological morphometric analyses on sections 6 μm thick, stained with hematoxylin eosin (HE), originating from skin samples fixed beforehand in […].
The inflammatory score is defined visually on the basis of predefined dryness, skin rash, baldness, excoriation and lichenification scales. The mean of the five scores given to one individual mouse on a given day indicates the clinical score given on the specific day.

A further assay deals with Mouse Psoriasiform Model. Put plainly: Mouse psoriasiform model (imiquimod / Aldara-induced skin inflammation). Type of assay: in vivo, Balb/c mice. Conditions: topical, 3% in acetone, once a day 2 h before Aldara, FIG. 4. The protocol: Example 2: Protocol for Testing an NLRP3 Antagonist (N-((1,2,3,5,6,7-hexahydro-s-indacen-4-yl)carbamoyl)-4-(2-hydroxypropan-2-yl)furan-2-sulfonamide, Compound 3, Also Known as MCC950) on a Mouse Psoriasiform Model
The treatment protocol consists of a daily topical application of Aldara® (3.18 mg of imiquimod) for 7 days to the shaved skin of Balb/c mice. The NLRP3 antagonist was dissolved in 3% acetone and was applied once a day 2 h before the treatment with Aldara®. The clinical score is an overall classification resulting from the sum of the erythema, edema and desquamation scores, on the basis of the overall evaluation by the physician of the Lattice system, known as LS PGA (J Am Acad Dermatol. 2004 October; 51(4):563-9).
Indeed, imiquimod induces inflamed scaly skin lesions resembling the psoriasis plaque. These lesions are associated with increased epidermal proliferation, abnormal differentiation, an epidermal accumulation of neutrophils in […], neoangiogenesis and infiltrates consisting of CD4+ T cells, of CD11c (+) dendritic cells and of plasmacytoid dendritic cells. Imiquimod induces an epidermal expression of IL-23, IL-17A and IL-17F, and also an increase in Th17 spleen cells. […]

Where [2] appears, read: systemic route (intravenous, 200 μl, 2.5 mg/ml once a day, D44 to D50).
[3] abbreviates: topical route (2% in acetone carrier, days 44, 47 and 50).

`CC(C)(O)c1coc(S(=O)(=O)NC(=O)Nc2c3c(cc4c2CCC4)CCC3)c1` [Compound 3, N-((1,2,3,5,6,7-hexahydro-s-indacen-4-yl)carbamoyl)-4-(2-hydroxypropan-2-yl)furan-2-sulfonamide]: in assay [1] (setting [2]), the “Insensible water loss (IWL) decrease” value is −60%, the “Thickness of the epidermis (epidermal acanthosis) change” value was −38% and the Inflammatory score reduction is −62%. For the same molecule, in assay [1] (setting [3]), the “Insensible water loss (IWL) decrease” value is −42%, the “Thickness of the epidermis (epidermal acanthosis) change” value is reported as −24% and the Inflammatory score reduction is −39%. Further, the “Efficacy compared with corticosteroid treatment” value in assay [1] (versus 0.1% betamethasone valerate, the corticosteroid control) is on record as “quite close to the treatment with corticosteroids”. For the same molecule, the “Reduction of imiquimod-induced skin inflammation on the basis of the clinical score” value in the assay with Mouse Psoriasiform Model (day 4) is −36%. Besides, the “Reduction of imiquimod-induced skin inflammation on the basis of the clinical score” value with Mouse Psoriasiform Model (day 5) was −27%.

These data come from patent US10857123B2, “NLRP3 inhibitors for the treatment of inflammatory skin disorders” (GALDERMA RESEARCH & DEVELOPMENT, priority 2016, dated 2020).
